Legend:
MRSA T144 = assay: MIC/MBC, broth micro-dilution; type: cell-based, Staphylococcus aureus; conditions: MRSA T144
Method: (§1) Experiments were performed with two biological replicates.

E. coli 1F28 [1] = assay: LPS, lipids or NAC inhibition assay (MIC); type: cell-based
Text: Lipopolysaccharides (LPS), lipids or NAC inhibition assay.

E. coli 1N31 = assay: MIC, tigecycline-resistant clinical isolate; type: cell-based; conditions: E. coli 1N31, tigecycline-resistant clinical isolate; broth micro-dilution
Method: as §1

E. coli 1A34 = assay: MIC, tigecycline-resistant clinical isolate; type: cell-based; conditions: E. coli 1A34, anal swab, tigecycline-resistant clinical isolate; broth micro-dilution
Method: as §1

E. coli 1F31 = assay: MIC, tigecycline-resistant clinical isolate; type: cell-based; conditions: E. coli 1F31, tigecycline-resistant clinical isolate; broth micro-dilution
Method: as §1

E. coli 1N28 = assay: MIC, tigecycline-resistant clinical isolate; type: cell-based; conditions: E. coli 1N28, nasal swab, tigecycline-resistant clinical isolate; broth micro-dilution
Method: as §1

E. coli 2W25 = assay: MIC, tigecycline-resistant clinical isolate; type: cell-based; conditions: E. coli 2W25, water, tigecycline-resistant clinical isolate; broth micro-dilution
Method: as §1

E. coli 1F28 [2] = assay: Cytoplasmic membrane potential (DiSC3(5)); type: cell-based; conditions: 0 to 128 μg/mL, 60 min
Method: A fluorescent probe DiSC3(5) (Aladdin, Shanghai, China) was utilized to evaluate the effect of WRK-12 on bacterial membrane potential. E. coli 1F28 cells were probed with 3,3′-dipropylthiadicarbocyanine iodide (DiSC3(5), 0.5 μM) for 30 min, and then treated with WRK-12 (0 to 128 μg/mL) or colistin (128 μg/mL) for 60 min. Subsequently, the dissipated membrane potential was determined by monitoring the fluorescence intensity (λexcitation = 622 nm, λemission = 670 nm) using a Microplate reader (Tecan, Männedorf, Switzerland).

[3] = in 0.01 M PBS or water; compared among four active AMPs

Ac-WRLRWKTRWRLK-NH2 [WRK-12]
MIC (MRSA T144; broth micro-dilution CLSI 2018, MHB, 18 h, 37 °C): 2 µg/mL
MBC (MRSA T144; lowest concentration killing 99.9%, plated on MHA): 2 µg/mL
MIC increase with exogenous CL (E. coli 1F28 [1]; 16 μg/mL CL, E. coli 1F28): 16 fold
MIC increase with exogenous PG (E. coli 1F28 [1]; 16 μg/mL PG, E. coli 1F28): 16 fold
effect of exogenous LPS on antibacterial activity (E. coli 1F28 [1]; LPS from E. coli O111:B4, 0 to 128 μg/mL, MIC against E. coli 1F28, chequerboard broth microdilution): weakened WRK-12 activity in a dose-dependent manner
MIC increase with ROS scavenger NAC (E. coli 1F28 [1]; NAC 2.5 mM, E. coli 1F28, three independent experiments): 6 fold
effect of exogenous PE on antibacterial activity (E. coli 1F28 [1]; PE 0 to 16 μg/mL, E. coli 1F28): mildly impaired WRK-12 activity
MIC (E. coli 1N31): 16 µg/mL
MIC (E. coli 1A34): 2 µg/mL
MIC (E. coli 1F31): 4 µg/mL
MIC (E. coli 1N28): 8 µg/mL
MIC (E. coli 2W25): 4 µg/mL
membrane potential (ΔΨ), DiSC3(5) fluorescence (E. coli 1F28 [2]): significantly dissipated membrane potential
solubility [3]: highest solubility
